From article PMC1190152, “Archazolid and apicularen: Novel specific V-ATPase inhibitors” (BMC Biochemistry, 2005)

Assays:
[1] = tested on: A-594; parameters: method as in PMID 10048565; settings: A-594, human lung carcinoma; ref [15]; read-out: IC50 growth inhibition; cited from earlier work
[2] = tested on: 3Y1; experiment: Growth inhibition of 3Y1 cells (MTT assay); type: cell-based, rat; settings: 120 h; 3Y1, rat embryogenic fibroblast cell line; MTT after 5 days; read-out: IC50 growth inhibition
Method: (§1) Cell lines were obtained from the German Collection of Microorganisms and Cell Cultures (DSMZ). Cell lines 3Y1 and M1 (embryonal fibroblasts from 129/Ola × C57BL/6 mice, [30]) were a generous gift from Dr. S. Miyamoto, Fukoka, Japan, and Dr. P. F. Mühlradt, Braunschweig, Germany. All cell lines were cultivated under conditions recommended by the supplier. Growth inhibition was measured in microtiterplates. Aliquots of 120 μl of the suspended cells (50,000/ml) were given to 60 μl of a serial dilution of the inhibitor. After 5 days, growth was determined using the MTT assay.

[3] = tested on: KB-V1; experiment: Growth inhibition of multidrug-resistant KB-V1 cells (MTT assay), with or without verapamil; type: cell-based; settings: 120 h; KB-V1, mdr human cervix carcinoma; without verapamil; MTT after 5 days
Method: The novel antibiotics archazolids and apicularens (Fig. 1) were checked for their impact on the cell growth of a variety of mammalian cell lines from different tissues (Tab. 1). […] Apicularen B was the only exception, with an average IC50 value two orders of magnitude higher. Growth inhibition of the multidrug-resistant cell line KB-V1 was also measured in the presence of verapamil. […] The data in Tab 1. show, that unlike the archazolids, the apicularens are poor substrates of Pgp. To visualize the impact of the antibiotics, PtK2 (potoroo kidney) cells were incubated with the inhibitors and stained for intact acidic lysosomes (Fig. 2). […] The same observation was made with KB-3-1 cells (data not shown). […] Unlike the cell lines listed in Tab. 1, the growth of PtK2 cells was not completely stopped. The same holds true for A-498 cells (human kidney carcinoma). Both cell lines grow epithelial-like. There was obviously a differential reaction of cell lines to V-ATPase inhibitors. For A-431 cells (human epidermoid carcinoma) a dependence on the expression of the EGF receptor was shown.
as §1

[4] = biological target: T1, V-ATPase holoenzyme from the midgut of the tobacco hornworm (Manduca sexta, UniProt P31403); experiment: Inhibition of purified V-ATPase holoenzyme activity; type: biochemical
T1 construct: purified V-ATPase holoenzyme from the midgut of the tobacco hornworm; from tissue; host or cells: midgut of fifth instar Manduca sexta larvae
T1 sequence (P31403 whole entry): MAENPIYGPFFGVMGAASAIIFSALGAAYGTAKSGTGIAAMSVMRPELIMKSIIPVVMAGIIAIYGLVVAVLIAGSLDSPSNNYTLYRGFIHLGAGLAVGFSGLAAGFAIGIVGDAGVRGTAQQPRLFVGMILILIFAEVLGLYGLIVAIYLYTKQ
Method: The V-ATPase holoenzyme was purified as published elsewhere. Preparation of highly purified membranes containing Na^+/K^+-ATPase from pig kidney followed the protocol of Jørgensen with the three main steps of differential centrifugation, incubation with SDS in the presence of ATP and sucrose density gradient centrifugation in a fixed angle rotor, and led to a specific enzyme activity which was in the same range as that reported by the authors. The resulting sample was stored frozen at -20°C. To prepare crude membrane extracts, the hearts of three mice were washed three times with an ice-cold buffer of pH 8.1 consisting of 0.25 M sucrose, 5 mM Tris-HCl, 5 mM EDTA, and 10 mM Pefabloc SC (Biomol), homogenized in 5 ml of this buffer and centrifuged at 4°C for 25 min at 233,000 × gmax in a fixed angle rotor. The resulting pellet was resuspended in 5 ml of a buffer of pH 7.5, consisting of 5 mM Tris-MOPS (3-morpholinopropanesulfonic acid), 10 mM NaCl, 10 mM Pefabloc SC, 9.6 mM 2-mercaptoethanol, 0.53 mM EGTA and 0.1 % Triton X-100. After an aliquot for protein determination had been taken, 10% bovine serum albumin (final concentration) was added to the suspension which was then stored on ice until the activity assays were run. Beef heart mitochondria were isolated by differential centrifugation, following the protocol of Smith by using a blender to homogenize the heart mince. The initial homogenization buffer consisted of 250 mM saccharose, 10 mM KH2PO4, 10 mM Tris, 2 mM EGTA, 2 mM MgCl2, pH 7.4, and further isolation procedures were carried out in the same medium without EGTA [24]. Submitochondrial particles were obtained by ultrasonic treatment of the mitochondria.
Standard V-ATPase assays with a final volume of 160 μl and a pH of 8.1 consisted of 3–4 μg of protein, 50 mM Tris-MOPS, 3 mM 2-mercaptoethanol, 1 mM MgCl2, 20 mM KCl, 0.003% C12E10, 20 mM NaCl, and 3 mM Tris-HCl. After 5 min of pre-incubation at 30°C with or without inhibitors, 1 mM Tris-ATP was added and after incubation for 2 min the reaction was stopped by placing the tube in liquid nitrogen. Assays using Na^+/K^+-ATPase were performed in 160 μl at pH 7.5 and contained 0.5 μg of protein, 50 mM Tris-MOPS, 5 mM imidazole, 0.2 mM EDTA, 4 mM MgCl2, 20 mM KCl and 100 mM NaCl. After 5 min of pre-incubation at 37°C with or without inhibitors, 3 mM Tris-ATP was added and after 1 min of incubation the reaction was stopped by placing the tube in liquid nitrogen. […] After 5 min of pre-incubation at 30°C with or without inhibitors, 1 mM Tris-ATP was added and after an incubation time of 10 min the reaction was stopped by placing the tubes in liquid nitrogen. ATPase assays with submitochondrial particles from beef heart were performed in a final volume of 1 ml and a pH of 8.0. The samples contained 9–12 μg protein, 50 mM Tris, 50 mM KCl and 2.5 mM MgCl2. After 5 min of preincubation with or without inhibitors, 5 mM ATP was added, and after an additional incubation time of 15 min the reaction was stopped by the addition of 0.4 ml of 20 % TCA.
Inorganic phosphate produced in the assays of V-ATPase, Na^+/K^+-ATPase and mouse heart F-ATPase was measured according the protocol of Wieczorek et al., while the determination of inorganic phosphate produced in the assays of beef heart F-ATPase followed the method of Fiske and Subarrow using ascorbic acid as reducing agent.
Fifth instar larvae of M. sexta (Lepidoptera, Sphingidae), weighing 6–8 g, were reared under long day conditions (16 h of light) at 27°C using a synthetic diet modified according to Bell et al.

[5] = tested on: bacterial growth; settings: ref [11],[15],[17]; cited from earlier work
[6] = tested on: M1; experiment: Growth inhibition of M1 cells (MTT assay); type: cell-based, mouse; settings: 120 h; M1, mouse embryogenic fibroblast cell line; MTT after 5 days; read-out: IC50 growth inhibition
Method: as §1

[7] = tested on: L-929; experiment: Growth inhibition of L-929 cells (MTT assay); type: cell-based; settings: Mus musculus, L929, 120 h; L-929, murine connective tissue; MTT after 5 days
Method: as §1

With `CC/C=C\C=C/C(=O)N/C=C/CC1CC2CC(O[C@@H]3O[C@H](CO)[C@@H](O)[C@H](O)[C@H]3NC(C)=O)CC(Cc3cccc(O)c3C(=O)O1)O2` (some centres unmarked) [apicularen B] as the molecule, how does the IC50 [1] read?
Its IC50 is 310 nM.

What about the IC50 [2] of the same molecule?
Its IC50 is 310 nM.

And the IC50 [3]?
Its IC50 is 1600 nM.

And the “IC50 per mg of protein, purified V-ATPase” value ([4]; equivalent of the half-maximal concentration)?
The value was ~2.4 nmol per mg of protein.

What about the IC50 ([4]; purified holoenzyme, 3–4 μg protein, pH 8.1, 30°C, read-out: half-maximal inhibition concentration of purified V-ATPase) of the same molecule?
The IC50 was about 60 nM.

And the “inhibition of bacterial growth” value [5]?
Its value is “failed to inhibit”.

And the IC50 [6]?
The IC50 was 190 nM.

What about the IC50 [7] of the same molecule?
Its IC50 is 620 nM.
